The results in this text go back to patent publication US20130090371A1, “METHODS AND COMPOSITIONS FOR INHIBITION OF BETA2-ADRENERGIC RECEPTOR DEGRADATION” (PRESIDENT AND FELLOWS OF HARVARD COLLEGE, priority 2010, published 2013).

In data set [1] the test system is cell surface β2AR. The experiment in a line: Flowcytometry of cell surface β2AR in 293.β2AR* (recycle-deficient FLAG-β2AR, β2ARt) cells. Format: cell-based, human. On the procedure: (§1) Cell Culture, Transfection and Drug Treatments. […] Transfection of DNA into 293T cells was using FuGene 6 reagent (Roche) according to manufacturer's instruction. […] FDPS-specific siRNA (sense [NT], antisense [NT]) was from Sigma-Aldrich and the non-targeting Scrambled siRNA was from Thermo Scientific. […] Cells were washed with PBS and incubated with diluted TrypLE Express Enzyme (Invitrogen) (1:10 dilutio in PBS) for exactly 1 min at room temperature followed by adding regular medium immediately. […] Then cells were washed again and passed through cell strainers to remove cell clumps before being sorted on a FACS Aria multicolor high speed sorter (Becton Dickinson). During FACS analysis, the population of single cell was gated to measured FITC (green) signal. Background of auto-fluorescence was identified by plotting FITC with PE (red) or SSC (side scatter) signal. FITC-positive cells were collected in calcium and magnesium-free PBS with 20% FBS. Collected cells were cultured for repeating FACS sorting. […] The population of PI-negative single cell was gated to measured FITC signal.

Data set [2] relates to cell surface β2AR. The data set is described as follows: Flowcytometry of cell surface β2AR in 293.β2AR^WT cells. It is filed as cell-based, human. On the procedure: as §1
Data set [3] has as its system cellular cholesterol. The experiment in a line: Cellular cholesterol measurement in 293.β2AR* cells. It is filed as cell-based, human. As to the method:
Error bars represented the standard deviations of replicates.
Cellular cholesterol measurement. 1×10^6 cells were cultured in each well of 6-well plates in DMEM containing 10% FBS for 3 d until fully confluent. Then drug treatments were performed in either DMEM containing 10% FBS or Opti-MEM without serum in duplicates. Cells were transferred to microcentrifuge tubes, washed twice with ice-cold PBS. Total lipids were extracted by resuspending and lysing cells in 300 μL of Chloroform: Isopropanol: Triton X-100 (7:11:0.1). The organic phase was collected after centrifugation at 12,000 rpm for 10 min and then evaporated at 50° C. for 3-4 h. Lipids were resuspend in 200 μL of Cholesterol Reaction buffer included in a commercial cholesterol measurement kit (Invitrogen) by votexing. Cholesterol was measured by the cholesterol oxidase method according to the manufacturer's directions. 2 or 4 measurements were taken for each replicate sample.

For data set [4], the system named is human airway smooth muscle cells. The experiment in a line: Optical Magnetic Twisting Cytometry (elastic modulus) of HASM cells. To be noted: for decrease of stiffness compared to baseline: 1 mM isoproterenol, measured over 15 min.
The test system of data set [5] is CaMKK2. The experiment in a line: qRT-PCR of CaMKK2 mRNA in primary HASM cells. Format: cell-based, human. To be noted: 50 nM siRNA; three days after transfection.
Data set [6] concerns FDPS. The experiment in a line: Real-time RT-PCR of FDPS mRNA in 293β2AR* cells. Format: cell-based, human. To be noted: normalized to β-Actin. On the procedure:
FIGS. 4A-4D show FDPS regulates the amount of Cell Surface β2AR in 293βAR* cells. […]. […] Cells were transduced with Lentivirus expressing FDPS-specific shRNA or empty vector, or transfected with FDPS-specific siRNA or non-targeting Scrambled (SCR) siRNA. The RNA levels were determined by real time RT-PCR and normalized to that of β-Actin. Error bars represented the standard deviations of replicates. Statistic analysis was using student's t-test. […]. MFI: Mean fluorescence intensity.
Real-Time RT-PCR. Total RNA was isolated by using TRIzol (Invitrogen) and further cleaned up by using RNeasy Mini kit (Qiagen) with DNase I digestion. cDNA was synthesized by using oligo-dT primers and SuperScript III (Invitrogen). Real-time PCR was performed on ABI Prism 7300 with SYBR Green (Qiagene). The FDPS was amplified with primers FDPS-1F (5′-TGACCGGCAAAATTGGCACTGACAT-3′) (SEQ ID NO: 20) and FDPS-1R (5′-CCTTCACCCGGGCCACTTTCTCA-3′) (SEQ ID NO: 21). […]. The β-Actin control was amplified with primers (Forward, 5′-AAG GCC AAC CGC GAG AAG-3′ (SEQ ID NO: 28) and Reverse, 5′-GGC GTA CAG GGA TAG CAC-3′ (SEQ ID NO: 29)).

Data set [7] deals with T1, β2ARt (Homo sapiens, UniProt P07550).
T1 construct: a distally truncated form (after residue 385) of β2AR (β2ARt); expressed in transfected cells; host or cells: HEK293 (293.β2AR*)
The data set is described as follows: Immunoblot of agonist-induced β2AR degradation in 293β2AR* / β2ARt cells. It is filed as cell-based. To be noted: after 3 hours of agonist induction (10 μM isoproterenol); vs empty vector. As to the method:
β2AR ubiquitination and degradation assays. Cells expressing […] or β2ARt were subjected to 10 μM ISO (Sigma) stimulation, lysed in 0.5% NP-40 lysis buffer and immunoblotted with anti-FLAG-HRP (Sigma). For β2AR ubiquitination, β2ARt or wt-β2AR expressing cells were first incubated with 10 μM alprenolol antagonist (Sigma) for 15 min (to reduce constitutive background ubiquitination), stimulated with 10 μM ISO and lysed in buffer supplemented with 10 mM N-ethylmaleimide (NEM; Sigma) to inhibit deubiquitinase activity. Anti-FLAG EZview beads (Sigma) used for the IP were subjected to three 10 min washes with lysis buffer and resuspended in 50 μl 2βLDS sample buffer (Invitrogen) containing 10% β-mercaptoethanol (Sigma) and analyzed by immunoblotting.

The subject of data set [8] is β2AR. The data set is described as follows: Immunoblot of β2AR protein in human airway smooth muscle (HASM) cells. To be noted: 20 μM isoproterenol for 2 d; vs non targeting shRNA.
Description: Error bars represented the standard deviations; Student t-test * p<0.05, n=2. […] Indirect Immunofluorescence staining of β2AR and phase contract images are shown.
Three days after the inhibitor treatment cell lysates were collected and analyzed by immunoblotting. Three repeats were done with similar results.
Immunoblot analysis. 48 h post DNA transfection, cells were wash with PBS and lysed with NP-40 lysing buffer (50 mM Tris-HCl pH7.5, 150 mM NaCl, 0.5% Nonidet P-40) containing protease inhibitor cocktail (Roche). Protein samples were separated on NuPAGE 10% Bis-Tris gels (Invitrogen) and transferred to nitrocellulose membranes (Bio-Rad). Immunoblot signals were developed using SuperSignal West Pico Chemiluminescent Substrate (Pierce, Rockford, Ill., USA) and quantified by a Luminescence Imager or exposed to X-ray films.
The target of data set [9] is T2, NEDD4 E3 ubiquitin ligase (UniProt P46934-4 1-900, limits assumed).
T2 construct: also called ubiquitin ligase NEDD4
T2 sequence (looked up): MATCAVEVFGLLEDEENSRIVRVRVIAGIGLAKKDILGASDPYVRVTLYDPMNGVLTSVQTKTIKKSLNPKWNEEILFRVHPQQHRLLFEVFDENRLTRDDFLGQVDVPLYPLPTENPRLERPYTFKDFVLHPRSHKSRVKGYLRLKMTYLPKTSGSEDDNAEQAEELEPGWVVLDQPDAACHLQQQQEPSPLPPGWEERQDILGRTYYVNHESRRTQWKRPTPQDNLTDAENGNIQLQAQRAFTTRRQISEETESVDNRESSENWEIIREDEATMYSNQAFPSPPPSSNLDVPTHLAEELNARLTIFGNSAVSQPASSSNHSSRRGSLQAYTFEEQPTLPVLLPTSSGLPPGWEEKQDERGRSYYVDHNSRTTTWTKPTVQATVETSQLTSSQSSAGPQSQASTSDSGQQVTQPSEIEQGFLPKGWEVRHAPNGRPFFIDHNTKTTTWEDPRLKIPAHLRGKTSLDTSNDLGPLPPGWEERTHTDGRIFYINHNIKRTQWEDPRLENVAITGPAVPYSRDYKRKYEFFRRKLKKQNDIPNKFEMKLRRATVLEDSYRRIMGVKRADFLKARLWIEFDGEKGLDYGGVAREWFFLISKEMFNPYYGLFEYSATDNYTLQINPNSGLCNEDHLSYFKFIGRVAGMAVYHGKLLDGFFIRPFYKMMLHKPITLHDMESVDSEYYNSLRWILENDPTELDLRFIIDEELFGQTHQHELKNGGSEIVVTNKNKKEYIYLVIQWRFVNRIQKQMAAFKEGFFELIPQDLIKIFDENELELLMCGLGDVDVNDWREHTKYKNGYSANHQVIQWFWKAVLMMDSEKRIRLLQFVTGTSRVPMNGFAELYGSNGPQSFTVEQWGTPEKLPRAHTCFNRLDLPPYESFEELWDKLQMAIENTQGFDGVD
The data set is described as follows: co-immunoprecipitation and immunoblot (FIG. 8B).

d = 2'-deoxy (DNA)

For the molecule `CC[C@H](C)C(=O)O[C@H]1C[C@H](O)C=C2C=C[C@H](C)[C@H](CC[C@@H](O)C[C@@H](O)CC(=O)O)[C@H]21` [pravastatin], the “effect on amount of cell surface β2AR” value in [1] (100 μg/mL for 1 d) and in data set [2] (100 μg/mL for 1 d) was “no significant effect” in each case. This molecule registered a cellular cholesterol lowering in data set [3] (1 μg/mL for 1 d, serum-free medium) of 19.9%.

As to `CC(C)CCC[C@@H](C)[C@H]1CC[C@H]2[C@@H]3CC=C4C[C@@H](O)CC[C@]4(C)[C@H]3CC[C@]12C` [cholesterol], in [2] (cholesterol supplementation (FIG. 6A)), the “effect on FDPS blockade of β2AR down-regulation” value was “reverses the effects of FDPS blockade”.

As for `CC(C)NCC(O)c1ccc(O)c(O)c1` (stereo not shown) [isoproterenol], the “decrease of stiffness compared to baseline” value in [4] (FDPS knockdown (sample) cells) is approximately 15%; in data set [4] (control cells) it was approximately 40%.

For “CaMKK2 siRNA #1: 5′ GCUCCUAUGGUGUCGUCAAdTdT (SEQ ID NO: 32), MISSION siRNA from Sigma (GCUCCUAUGGUGUCGUCAATT; further chemistry not given here)”, in data set [5], the “knockdown of CaMKK2 expression” value is “about 90%”.

As for “AA496068 EST shRNA: shRNA TCTGCATTTCCTGTAATTTTGCATGC (SEQ ID NO: 2) targeting EST AA496068 upstream of latrophilin 2”, the “cell surface β2AR, mean fluorescence intensity” value in data set [1] (β2ARt-expressing 293 cells, vehicle or ISO 16 h, vs non-targeting shRNA) is recorded as “An increase in the mean fluorescence intensity values”.

As for `NCCCC(O)(P(=O)([O-])O)P(=O)(O)O.[Na+]` [alendronate, (4-amino-1-hydroxybutylidene)bisphosphonic acid monosodium salt], the “cell surface β2AR levels after agonist induction” value in [1] (50 or 500 μM for 1 d, then 10 μM isoproterenol 3 h) was “dose dependent increase of the cell surface β2AR levels”. Also, the “surface β2AR levels prior and post agonist induction” value in [1] (treatment for 2 days, data not shown) is “increase the surface β2AR levels”. Further, the “amount of cell surface β2AR” value in [2] (50 μM alendronate alone for 1 d) is reported as “increased the amount of cell surface β2AR”. In addition, the “cell surface β2AR levels before and after agonist induction” value in data set [2] (50 μM for 1 d, then 10 μM isoproterenol 1 h) is “increased the cell surface β2AR levels both before and after agonist induction”. Moreover, the “effect on cellular cholesterol” value in data set [3] (50 μM ALN or 100 μg/mL pravastatin for 1 d, serum containing medium) was “neither alendronate nor pravastatin could significantly lower the cellular cholesterol”; in data set [3] (50 μM for 1 d, serum-free medium) it was “not sufficient to lower cellular cholesterol”.

Consider “FDPS-specific siRNA: sense 5′-cca ugu aca ugg cag gaa u(dT)(dT)-3′, antisense 5′-auu ccu gcc aug uac aug g(dT)(dT)-3′, from Sigma-Aldrich (sense CCAUGUACAUGGCAGGAAU; antisense AUUCCUGCCAUGUACAUGG; RNA, 3' dTdT, backbone not given here)”, for which, in [1] (both prior and post agonist induction (10 μM isoproterenol 1 or 3 h), vs non-targeting control siRNA), the “increase in cell surface β2AR” value was “about 2 fold”. Moreover, in data set [6], the “down regulation of FDPS mRNA level (knockdown efficiency)” value is given as “about 80%”.

“FDPS-specific shRNA: lentiviral shRNA clone, hairpin sequence 5′-AGCGGAGAAAGTGACCTAGAGATTG-3′ (SEQ ID NO: 20) (AGCGGAGAAAGTGACCTAGAGATTG)”: the “amount of β2AR by immunoblot” value in data set [7] is given as “increased amount of β2AR”. The “down regulation of FDPS mRNA level (knockdown efficiency)” value in data set [6] was “about 10%”. The “baseline elastic modulus (t=0)” value in data set [4] (FDPS knockdown cells vs control cells) is recorded as “approximately two times lower”. Also, in [8], the “total amount of β2AR” value was “upregulation of β2AR”.

As to “ARRDC3-specific shRNA: shRNA sequence CCACAGACACCACTCGCTACCTCATT (SEQ ID NO: 24)”, in data set [1] (β2ARt cells, vs non-targeting shRNA), the “higher level of cell surface receptor after agonist stimulation” value was more than 20%.

For “CaMKK2 siRNA #2: 5′ UUGACGACACCAUAGGAGCdTdT (SEQ ID NO: 33), MISSION siRNA from Sigma (UUGACGACACCAUAGGAGCTT; further chemistry not given here)”, in data set [5], the “knockdown of CaMKK2 expression” value was “about 90%”.

Regarding Methyl-beta-cyclodextrin [MbCD], in [1] (1 or 2 mM for 1 h, then 10 μM isoproterenol 1 h), the “cell surface β2AR post agonist induction” value was “increased amount of cell surface β2AR post agonist induction”. In data set [3] (2 mM for 1 h, medium containing 10% FBS), this molecule displayed a cellular cholesterol lowering of 35.3%.

B1: ARRDC3ΔΔPPXY (double PPXY motif mutant of ARRDC3) (other, human, UniProt Q96B67 1-414, looked up)
chain: MVLGKVKSLTISFDCLNDSNVPVYSSGDTVSGRVNLEVTGEIRVKSLKIHARGHAKVRWTESRNAGSNTAYTQNYTEEVEYFNHKDILIGHERDDDNSEEGFHTIHSGRHEYAFSFELPQTPLATSFEGRHGSVRYWVKAELHRPWLLPVKLKKEFTVFEHIDINTPSLLSPQAGTKEKTLCCWFCTSGPISLSAKIERKGYTPGESIQIFAEIENCSSRMVVPKAAIYQTQAFYAKGKMKEVKQLVANLRGESLSSGKTETWNGKLLKIPPVSPSILDCSIIRVEYSLMVYVDIPGAMDLFLNLPLVIGTIPLHPFGSRTSSVSSQCSMNMNWLSLSLPERPEAAASAAEVVTEEQRRNNLAPVSACDDFERALQGPLFAYIQEFRFLPAALASEIDPNPDQSADDRPSCPSR
notes: also called double PPXY ARRDC3 mutant; double PPXY mutant
Consider B1, for which the binding result in [9] is recorded as “no binding”.
